# Laboratory results as given in patent US20200368312A1 (priority 2017, published 2020).
# Read-outs that look alike come from different tables or passages of the source.
# How the values were obtained:
# [1] = tested on: MRSA isolate ATCC BAA-1556; test: MIC, CLSI-guided broth susceptibility testing (Example 10); type: cell-based, Staphylococcus aureus
# Experimental: (§1) MIC Testing: Glycopeptide compounds were dissolved in 100% DMSO. In vitro activities were determined using CLSI-guided broth susceptibility testing to measure drug minimum inhibitory concentrations (MICs) of the compounds against the quality control strain ATCC 29213 (MSSA) and the MRSA isolate ATCC BAA-1556. Glycopeptides are defined as compounds of Formula (I), and their respective R^1, R^2, R^3 and R^4 groups. X is —O— for each compound in Table 2.
# [2] = tested on: quality control strain ATCC 29213 (MSSA); test: as above; type: cell-based, Staphylococcus aureus
# Experimental: as §1
# [3] = tested on: Staphylococcus aureus; test: microbe, parasite or virus in culture; type: cell-based; settings: for RV40 activity as compared to Comparator: MRSA strains (Table 5)
# [4] = tested on: Enterococci; type: cell-based
# [5] = tested on: Streptococci; test: Broth microdilution MIC, Streptococci (Example 11, Table 7); type: cell-based
# [6] = tested on: Clostridium difficile; test: Broth microdilution MIC, C. difficile, anaerobic, supplemented Brucella Broth (Example 11, Table 7); type: cell-based
# [7] = tested on: S. epidermidis (CoNS); test: Broth microdilution MIC, S. epidermidis (CoNS) (Table 7); type: cell-based
# [8] = tested on: S. lugdenensis (CoNS); test: Broth microdilution MIC, S. lugdenensis (CoNS) (Table 7); type: cell-based; settings: S. lugdenensis (CoNS) MMX 8724
# [9] = tested on: S. haemolyticus (CoNS); test: Broth microdilution MIC, S. haemolyticus (CoNS) (Table 7); type: cell-based; settings: S. haemolyticus (CoNS) MMX 529 ATCC 29970
# [10] = tested on: S. hominis (CoNS); test: Broth microdilution MIC, S. hominis (CoNS) (Table 7); type: cell-based; settings: S. hominis (CoNS) MMX 667 ATCC 27844
# [11] = tested on: C. perfringens; type: cell-based; settings: C. perfringens MMX 8351 ATCC 13124
# [12] = tested on: P. micros; test: Broth microdilution MIC, P. micros (Table 7); type: cell-based; settings: P. micros MMX 3546
# [13] = tested on: P. anaerobius; test: Broth microdilution MIC, P. anaerobius (Table 7); type: cell-based; settings: P. anaerobius MMX 1208 ATCC 27337
# [14] = tested on: P. acnes; test: Broth microdilution MIC, P. acnes (Table 7); type: cell-based
# [15] = tested on: E. lenta; test: Broth microdilution MIC, E. lenta (Table 7); type: cell-based; settings: E. lenta MMX 1287 ATCC 43055
# [16] = E. faecalis MMX 101 ATCC 29212, VSE
# [17] = S. anginosus (AGS) MMX 1201 ATCC 33397
# [18] = S. pneumoniae MMX 1195 ATCC 49619, PISP
# [19] = C. difficile MMX 4381 ATCC 700057, toxinAB-negative
# [20] = C. difficile MMX 4994 ATCC BAA-1805, ribotype 027
# [21] = C. difficile MMX 5668 ATCC BAA-1870, NAP1/027
# [22] = S. epidermidis (CoNS) MMX 762, MRSE
# [23] = S. epidermidis (CoNS) MMX 5145, MRSE
smiles,measurement,setting,value
CCCCCCCCCCNCCN[C@@]1(C)C[C@H](O[C@H]2[C@H](Oc3c4cc5cc3Oc3ccc(cc3Cl)[C@@H](O)[C@@H](NC(=O)[C@@H](CC(C)C)NC)C(=O)N[C@@H](CC(N)=O)C(=O)N[C@H]5C(=O)N[C@H]3C(=O)N[C@H](C(=O)N[C@H](C(=O)O)c5cc(O)c(CNCP(=O)(O)O)c(O)c5-c5cc3ccc5O)[C@H](O)c3ccc(c(Cl)c3)O4)O[C@H](CO)[C@@H](O)[C@@H]2O)O[C@@H](C)[C@H]1O [Telavancin],MIC Values MRSA 1556,[1],0.063 µg/mL
same,MIC Values MSSA 29213,[2],0.063 µg/mL
same,RV40 activity as compared to Comparator,[3],6 ×
same,MIC,"[3]; S. aureus MMX 100 ATCC 29213, MSSA (quality control)",0.06 µg/mL
same,MIC,"[3]; S. aureus MMX 1723, Mu50, VISA",0.5 µg/mL
same,MIC,"[3]; S. aureus MMX 2010, MRSA",0.06 µg/mL
same,MIC,"[3]; S. aureus MMX 2011 ATCC BAA-1756, MRSA",0.06 µg/mL
same,MIC,"[3]; S. aureus MMX 2124, VISA, DaptoNS",0.5 µg/mL
same,MIC,"[3]; S. aureus MMX 2490, MSSA",0.12 µg/mL
same,MIC,"[3]; S. aureus MMX 3982, MRSA",0.06 µg/mL
same,MIC,"[3]; S. aureus MMX 4658, VISA",0.12 µg/mL
same,MIC,"[3]; S. aureus MMX 4660, VISA",0.12 µg/mL
same,MIC,"[3]; S. aureus MMX 4665, hVISA",0.25 µg/mL
same,MIC,"[3]; S. aureus MMX 4675 ATCC BAA-1556, MRSA",0.06 µg/mL
same,MIC,"[3]; S. aureus MMX 5717 ATCC 33591, MRSA",0.06 µg/mL
same,MIC,"[3]; S. aureus MMX 5985, MRSA",0.06 µg/mL
same,MIC,"[3]; S. aureus MMX 5989, Mu3, hVISA",0.12 µg/mL
same,MIC,"[3]; S. aureus MMX 5999, MRSA",0.06 µg/mL
same,MIC,"[3]; S. aureus MMX 7899, MRSA",0.06 µg/mL
same,MIC,"[3]; S. aureus MMX 7900, MRSA",0.06 µg/mL
same,MIC,"[3]; S. aureus MMX 7901, MRSA",0.03 µg/mL
same,MIC,"[3]; S. aureus MMX 7902, MRSA",0.06 µg/mL
same,MIC,"[3]; S. aureus MMX 7903, MRSA",0.06 µg/mL
same,MIC,"[3]; S. aureus MMX 7907, MSSA",0.06 µg/mL
same,MIC,"[3]; S. aureus MMX 7908, MSSA",0.12 µg/mL
same,MIC,[4]; [16],0.12 µg/mL
same,MIC,"[4]; E. faecalis MMX 1086, VanA VRE",1 µg/mL
same,MIC,[4]; E. faecalis MMX 4176,0.25 µg/mL
same,MIC,"[4]; E. faecium MMX 173, VanB VRE",0.06 µg/mL
same,MIC,"[4]; E. faecium MMX 851, VanA VRE",2 µg/mL
same,MIC,[4]; E. faecium MMX 4204,0.06 µg/mL
same,activity against vancomycin-resistant enterococci (VRE),"[4]; VRE, MIC values elevated relative to vancomycin-susceptible enterococci (VSE)",potent activity
same,MIC,[5]; S. agalactiae MMX 427 ATCC 13813,0.06 µg/mL
same,MIC,[5]; S. agalactiae MMX 4088,0.06 µg/mL
same,MIC,"[5]; S. agalactiae MMX 4115, erm^R",0.06 µg/mL
same,MIC,[5]; [17],0.06 µg/mL
same,MIC,[5]; S. constellatus (AGS) MMX 5677,0.03 µg/mL
same,MIC,[5]; S. dysgalactiae MMX 5121,0.12 µg/mL
same,MIC,[5]; S. dysgalactiae MMX 5123,0.25 µg/mL
same,MIC,[5]; S. dysgalactiae MMX 5124,0.03 µg/mL
same,MIC,[5]; S. mitis (MGS) MMX 1205 ATCC 49456,0.06 µg/mL
same,MIC,[5]; S. oralis (MGS) MMX 5821,0.06 µg/mL
same,MIC,"[5]; S. pneumoniae MMX 432, PRSP",0.03 µg/mL
same,MIC,[5]; S. pneumoniae MMX 747,0.015 µg/mL
same,MIC,[5]; [18],0.03 µg/mL
same,MIC,[5]; S. pyogenes MMX 404 ATCC 19615,0.06 µg/mL
same,MIC,"[5]; S. pyogenes MMX 946, ermR",0.06 µg/mL
same,MIC,[5]; S. pyogenes MMX 8778,0.06 µg/mL
same,MIC,[6]; [19],0.12 µg/mL
same,MIC,[6]; [20],0.12 µg/mL
same,MIC,[6]; [21],0.12 µg/mL
same,MIC,[7]; [22],0.12 µg/mL
same,MIC,[7]; [23],0.03 µg/mL
same,MIC,[8],0.06 µg/mL
same,MIC,[9],0.06 µg/mL
same,MIC,[10],0.06 µg/mL
same,MIC,[11],0.015 µg/mL
same,MIC,[12],0.06 µg/mL
same,MIC,[13],0.03 µg/mL
same,MIC,[14]; P. acnes MMX 7942 ATCC 6919,0.03 µg/mL
same,MIC,[14]; P. acnes MMX 7946 ATCC 11827,0.015 µg/mL
CN(C)c1cc(NC(=O)CNC(C)(C)C)c(O)c2c1C[C@H]1C[C@H]3[C@H](N(C)C)C(O)=C(C(N)=O)C(=O)[C@@]3(O)C(O)=C1C2=O [Tigecycline],RV40 activity as compared to Comparator,[3],16 ×
same,MIC,"[3]; Staphylococcus aureus, ATCC 29213 / MSSA, S. aureus MMX 100 ATCC 29213, MSSA (quality control)",0.25 µg/mL
same,MIC,"[3]; Staphylococcus aureus, ATCC 33591 / MRSA, S. aureus MMX 5717 ATCC 33591, MRSA",0.25 µg/mL
same,MIC,"[3]; Staphylococcus aureus, ATCC BAA-1556 / MRSA, S. aureus MMX 4675 ATCC BAA-1556, MRSA",0.12 µg/mL
same,MIC,"[3]; Staphylococcus aureus, ATCC BAA-1756 / MRSA, S. aureus MMX 2011 ATCC BAA-1756, MRSA",0.12 µg/mL
same,MIC,"[3]; Staphylococcus aureus, MRSA, S. aureus MMX 2010, MRSA",0.09 µg/mL
same,MIC,"[3]; Staphylococcus aureus, MRSA, S. aureus MMX 3982, MRSA",0.185 µg/mL
same,MIC,"[3]; Staphylococcus aureus, MRSA, S. aureus MMX 5985, MRSA",0.185 µg/mL
same,MIC,"[3]; Staphylococcus aureus, MRSA, S. aureus MMX 5999, MRSA",0.12 µg/mL
same,MIC,"[3]; Staphylococcus aureus, MRSA, S. aureus MMX 7899, MRSA",0.12 µg/mL
same,MIC,"[3]; Staphylococcus aureus, MRSA, S. aureus MMX 7900, MRSA",0.185 µg/mL
same,MIC,"[3]; Staphylococcus aureus, MRSA, S. aureus MMX 7901, MRSA",0.12 µg/mL
same,MIC,"[3]; Staphylococcus aureus, MRSA, S. aureus MMX 7902, MRSA",0.12 µg/mL
same,MIC,"[3]; Staphylococcus aureus, MRSA, S. aureus MMX 7903, MRSA",0.12 µg/mL
same,MIC,"[3]; Staphylococcus aureus, MSSA, S. aureus MMX 2490, MSSA",0.12 µg/mL
same,MIC,"[3]; Staphylococcus aureus, MSSA, S. aureus MMX 7907, MSSA",0.12 µg/mL
same,MIC,"[3]; Staphylococcus aureus, MSSA, S. aureus MMX 7908, MSSA",0.12 µg/mL
same,MIC,"[3]; Staphylococcus aureus, S. aureus MMX 4665, hVISA",0.25 µg/mL
same,MIC,"[3]; Staphylococcus aureus, S. aureus MMX 5989, Mu3, hVISA",0.75 µg/mL
same,MIC,"[3]; Staphylococcus aureus, VISA, S. aureus MMX 1723, Mu50",0.5 µg/mL
same,MIC,"[3]; Staphylococcus aureus, VISA, S. aureus MMX 2124, VISA, DaptoNS",0.045 µg/mL
same,MIC,"[3]; Staphylococcus aureus, VISA, S. aureus MMX 4658, VISA",0.12 µg/mL
same,MIC,"[3]; Staphylococcus aureus, VISA, S. aureus MMX 4660, VISA",0.09 µg/mL
same,MIC,[4]; [16],0.06 µg/mL
same,MIC,"[4]; E. faecalis MMX 1086, VanA VRE",0.12 µg/mL
same,MIC,[4]; E. faecalis MMX 4176,0.12 µg/mL
same,MIC,"[4]; E. faecium MMX 173, VanB VRE",0.06 µg/mL
same,MIC,"[4]; E. faecium MMX 851, VanA VRE",0.06 µg/mL
same,MIC,[4]; E. faecium MMX 4204,0.06 µg/mL
same,MIC,[5]; S. agalactiae MMX 4088,0.03 µg/mL
same,MIC,"[5]; S. agalactiae MMX 4115, erm^R",0.03 µg/mL
same,MIC,[5]; [17],0.008 µg/mL
same,MIC,[5]; S. constellatus (AGS) MMX 5677,0.03 µg/mL
same,MIC,[5]; S. dysgalactiae MMX 5121,0.06 µg/mL
same,MIC,[5]; S. dysgalactiae MMX 5123,0.015 µg/mL
same,MIC,[5]; S. dysgalactiae MMX 5124,0.12 µg/mL
same,MIC,[5]; S. mitis (MGS) MMX 5798,0.03 µg/mL
same,MIC,[5]; S. oralis (MGS) MMX 5821,0.06 µg/mL
same,MIC,"[5]; S. pneumoniae MMX 432, PRSP",0.03 µg/mL
same,MIC,[5]; S. pneumoniae MMX 747,0.03 µg/mL
same,MIC,[5]; [18],0.06 µg/mL
same,MIC,[5]; S. pyogenes MMX 404 ATCC 19615,0.015 µg/mL
same,MIC,"[5]; S. pyogenes MMX 946, ermR",0.015 µg/mL
same,MIC,[5]; S. pyogenes MMX 8778,0.03 µg/mL
same,MIC,[6]; [19],0.18 µg/mL
same,MIC,[6]; [20],0.03 µg/mL
same,MIC,[6]; [21],0.03 µg/mL
same,MIC,[7]; [22],0.06 µg/mL
same,MIC,[7]; [23],0.12 µg/mL
same,MIC,[8],0.06 µg/mL
same,MIC,[9],0.06 µg/mL
same,MIC,[10],0.12 µg/mL
same,MIC,[11],0.12 µg/mL
same,MIC,[12],0.015 µg/mL
same,MIC,[13],0.03 µg/mL
same,MIC,[14]; P. acnes MMX 7942 ATCC 6919,0.03 µg/mL
same,MIC,[14]; P. acnes MMX 7946 ATCC 11827,0.03 µg/mL
same,MIC,[15],0.25 µg/mL
